From patent publication US8486431B2 (priority 2005, dated 2013)

Columns and labels:
[1] = tested on: Type A influenza strain A/PR8 (H1N1); design: species or system mice; conditions: mouse, in vivo
[2] = target: T1, glucose-6-phosphate dehydrogenase (G6PD) (Saccharomyces cerevisiae, UniProt P11412); experiment: Protein denaturation experiment: enzyme activity of G6PD reacted with chlorine dioxide; type: biochemical, yeast; conditions: 0.07 ppm chlorine dioxide in PBS pH7; 25° C., 2 minutes; compared with 0 ppm
T1 construct: purchased Sigma Corp
Protocol: The enzyme activity of G6PD was determined by observing absorption of NADPH by a spectral photometer, with using NADP and glucose-phosphoric acid as the substrate. Specific reaction conditions were set according to the manufacturer's (Sigma Corp.) instructions.
The concentration values on the horizontal axis are shown as being converted into the unit of ppm. The “specific activity” on the vertical axis represents enzyme activity (unit/mg) per 1 mg of protein

[3] = tested on: Type A influenza strain A/PR8 (H1N1); conditions: mouse, in vivo

T1 sequence (P11412 whole entry): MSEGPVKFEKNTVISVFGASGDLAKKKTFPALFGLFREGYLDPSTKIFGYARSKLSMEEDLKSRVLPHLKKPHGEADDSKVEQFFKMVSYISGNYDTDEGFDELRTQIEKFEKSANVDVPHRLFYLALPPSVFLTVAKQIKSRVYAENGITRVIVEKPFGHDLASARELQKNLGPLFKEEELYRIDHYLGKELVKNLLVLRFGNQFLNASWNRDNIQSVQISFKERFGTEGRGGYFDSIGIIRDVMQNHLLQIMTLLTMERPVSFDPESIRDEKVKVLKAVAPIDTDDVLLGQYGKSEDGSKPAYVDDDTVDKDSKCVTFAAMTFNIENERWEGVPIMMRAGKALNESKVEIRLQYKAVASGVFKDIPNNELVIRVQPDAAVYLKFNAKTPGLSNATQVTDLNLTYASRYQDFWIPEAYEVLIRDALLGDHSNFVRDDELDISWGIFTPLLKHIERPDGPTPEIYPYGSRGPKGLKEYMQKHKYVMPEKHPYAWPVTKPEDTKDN

## [O][Cl+][O-] [chlorine dioxide]
[1]
  Total virus amount in lung tissues on Day 3 after 10 LD50 virus exposure (TClD50 values): 10^3 TClD50
  lung virus amount relative to that of the control group (0 ppm group): 5%
  total virus amounts in lung after delayed administration: smaller than expected
[2]
  reduction in the enzyme activity of G6PD: about 60%
[3]
  chlorine dioxide concentration required for preventing influenza virus infection: 0.0001 ppm
  chlorine dioxide gas concentration effective for influenza onset inhibition: at least 0.05 ppm
  deaths compared with 0 ppm group: deaths occurred with delay
  number of onsets of influenza and virus amount in the lung versus control group (0 ppm): no significant difference was found
